In US20120017924A1 (priority 2001, published 2012):
Where two headings read alike, the source gives them in different places.

Key:
[1] = system: adult; conditions: Merck Index; cited from earlier work
[2] = smoking a cigarette; cited from earlier work
[3] = Text: Absorption of nicotine from the oral cavity to the systemic circulation is dependent on the pH of the saliva, pH of the blood plasma and the pKa of nicotine, which is about 7.8. Assuming a pH of the plasma of 7.4 and of the saliva of 6.8 only about 10% of the nicotine will be in the free base form. Thus, in order to promote absorption of nicotine in a free base form, which is the form predominantly absorbed through the mucosa, the pH of the saliva must be increased. At a pH of 8.8 about 90% of the nicotine will then be in the free base form.

CN1CCCC1c1cccnc1 (stereo not shown) [nicotine, 3-(1-methyl-2-pyrrolidinyl)-pyridine]
amount of nicotine able to kill an adult [1]: Approximately forty | time for nicotine to reach the brain after inhalation [2]: ten | nicotine in the free base form ([3]; assuming pH of plasma 7.4 and of saliva 6.8): about 10% | nicotine in the free base form ([3]; at a pH of 8.8): about 90%
